In ChEMBL document CHEMBL4428035, “Urea derivates of ursolic, oleanolic and maslinic acid induce apoptosis and are selective cytotoxic for several human tumor cell lines” (Eur J Med Chem, 2016):

Key:
MCF7 = assay: Cytotoxicity against human MCF7 cells assessed as reduction in cell proliferation after 96 hrs by sulforhodamine B assay; assay type: functional, cell-based; details: MCF7, 96 h
HT-29 = assay: Cytotoxicity against human HT-29 cells assessed as reduction in cell proliferation after 96 hrs by sulforhodamine B assay; assay type: functional, cell-based; details: HT-29, 96 h
A2780 = assay: Cytotoxicity against human A2780 cells assessed as reduction in cell proliferation after 96 hrs by sulforhodamine B assay; assay type: functional, cell-based; details: A2780, 96 h
SW-1736 = assay: Cytotoxicity against human SW1736 cells assessed as reduction in cell proliferation after 96 hrs by sulforhodamine B assay; assay type: functional, cell-based; details: SW-1736, 96 h
A549 = assay: Cytotoxicity against human A549 cells assessed as reduction in cell proliferation after 96 hrs by sulforhodamine B assay; assay type: functional, cell-based; details: A549, 96 h
NIH3T3 = assay: Cytotoxicity against mouse NIH/3T3 cells assessed as reduction in cell proliferation after 96 hrs by sulforhodamine B assay; assay type: ADME, cell-based; details: NIH3T3, 96 h
FaDu = assay: Cytotoxicity against human FADU cells assessed as reduction in cell proliferation after 96 hrs by sulforhodamine B assay; assay type: functional, cell-based
518A2 = assay: Cytotoxicity against human 518A2 cells assessed as reduction in cell proliferation after 96 hrs by sulforhodamine B assay; assay type: functional, cell-based; details: 518A2, 96 h
[1] = Selectivity index, ratio of EC50 for mouse NIH/3T3 cells to EC50 for human A2780 cells; details: NIH/3T3 cells versus A2780 cells

Row | SMILES | EC50 (MCF7) | EC50 (HT-29) | EC50 (A2780) | EC50 (SW-1736) | EC50 (A549) | EC50 (NIH3T3) | EC50 (FaDu) | EC50 (518A2) | selectivity ratio [1]
1 | CC(=O)O[C@H]1C[C@]2(C)[C@H]3CC=C4[C@@H]5CC(C)(C)CC[C@]5(C(=O)O)CC[C@@]4(C)[C@]3(C)CC[C@H]2C(C)(C)[C@H]1OC(C)=O | 15.1 µM | 18.8 µM | 7.2 µM | > 30 µM | 29.1 µM | 8 µM | > 30 µM | – | –
2 | COCO[C@@H]1C[C@]2(C)[C@H]3CC=C4[C@@H]5CC(C)(C)CC[C@]5(C(=O)NCc5ccccc5)CC[C@@]4(C)[C@]3(C)CC[C@H]2C(C)(C)[C@H]1OCOC | 15.2 µM | 15.9 µM | – | 18.2 µM | 17.3 µM | 15 µM | 17.9 µM | 22.1 µM | –
3 | CC1(C)CC[C@]2(C(=O)NCc3ccccc3)CC[C@]3(C)C(=CC[C@@H]4[C@@]5(C)C[C@H]6OCO[C@@H]6C(C)(C)[C@@H]5CC[C@]43C)[C@@H]2C1 | 16.7 µM | 20.8 µM | – | > 30 µM | > 30 µM | 13.9 µM | > 30 µM | > 30 µM | –
4 | CO[C@@H]1C[C@]2(C)[C@H]3CC=C4[C@@H]5CC(C)(C)CC[C@]5(C(=O)NCc5ccccc5)CC[C@@]4(C)[C@]3(C)CC[C@H]2C(C)(C)[C@H]1OC | 14.6 µM | 14.3 µM | – | 20.5 µM | 15.3 µM | 14.7 µM | 17.2 µM | 18.1 µM | –
5 | CC1(C)CC[C@]2(C(=O)NCc3ccccc3)CC[C@]3(C)C(=CC[C@@H]4[C@@](C)(CC=O)[C@H](C(C)(C)C=O)CC[C@]43C)[C@@H]2C1 | 5.4 µM | 8.3 µM | – | 7.5 µM | 6.9 µM | 12.2 µM | 7 µM | 6 µM | –
6 | CC(=O)O[C@H]1C[C@]2(C)[C@H]3CC=C4[C@@H]5CC(C)(C)CC[C@]5(NC(=O)c5ccccc5)CC[C@@]4(C)[C@]3(C)CC[C@H]2C(C)(C)[C@H]1OC(C)=O | 16.8 µM | 6.8 µM | 3.1 µM | 6.8 µM | 11.1 µM | 12.2 µM | – | 3.5 µM | –
7 | CC(=O)O[C@@H]1[C@H](OC(C)=O)C[C@]2(C)[C@H]3CC=C4[C@@H]5CC(C)(C)CC[C@]5(C(=O)O)CC[C@@]4(C)[C@]3(C)CC[C@H]2C1(C)C | 17.6 µM | 21.4 µM | 10.5 µM | 22 µM | 20.4 µM | 14.2 µM | 17.3 µM | 15.3 µM | –
8 | CC(=O)O[C@@H]1C[C@]2(C)[C@H]3CC=C4[C@@H]5CC(C)(C)CC[C@]5(C(=O)NCc5ccccc5)CC[C@@]4(C)[C@]3(C)CC[C@H]2C(C)(C)[C@H]1OC(C)=O | 7.7 µM | 4.7 µM | 0.5 µM | – | 2.5 µM | 33.8 µM | 3.1 µM | 1.5 µM | 70
9 | CC(=O)O[C@H]1C[C@]2(C)[C@H]3CC=C4[C@@H]5CC(C)(C)CC[C@]5(C(=O)O)CC[C@@]4(C)[C@]3(C)CC[C@H]2C(C)(C)[C@@H]1OC(C)=O | 14.8 µM | 16.5 µM | 6.7 µM | 23.4 µM | 15.2 µM | 10 µM | 9.5 µM | 11.7 µM | –
10 | CC(=O)O[C@H]1C[C@]2(C)[C@H]3CC=C4[C@@H]5[C@@H](C)[C@H](C)CC[C@]5(NC(=O)c5ccccc5)CC[C@@]4(C)[C@]3(C)CC[C@H]2C(C)(C)[C@H]1OC(C)=O | > 30 µM | 11.7 µM | 6.7 µM | 14.9 µM | 16.4 µM | 14.1 µM | – | 7.9 µM | –
